Values of other authors in US6814987B2, “Compositions and methods of use for extracts of magnoliaceae plants” (NPI, LLC., priority 2000, dated 2004).
Where two headings read alike, the source gives them in different places.

Structure (SMILES)	duration of muscle relaxing effect (250 mg/kg) [h]	observed effect (500 mg/kg)	observed effects (mice; 63 mg/kg intraperitoneally)	duration of effects after injection (mice; 125 mg/kg) [h]	observed effects (mice; 125 mg/kg)	duration of muscle relaxation (mice; 250 mg/kg)	time to ataxia (mice; 250 mg/kg) [min]	time to loss of righting reflex (mice; 250 mg/kg) [min]
C=CCc1ccc(O)c(-c2ccc(O)c(CC=C)c2)c1 [honokiol]	3	loss of righting reflex						
C=CCc1ccc(O)c(-c2cc(CC=C)ccc2O)c1 [magnolol]			hypomotility, ptosis, and sedation	2	sedation, ataxia, and prominent muscle relaxation	over 3 hr	≤ 10	40
